The text below walks through data of patent US11655269B2, “Prodrug-type anticancer agent using cancer-specific enzymatic activity” (The University of Tokyo, priority 2018, dated 2023).

The test system of one assay is GGT. Nature of the assay: Enzymatic reaction with purified GGT, LC-MS analysis of products. The class given is biochemical. The procedure:
(§1) Next, enzymatic reactions were carried out under the following conditions using the three compounds synthesized and purified enzymes.
(§2) Final compound concentration: 100 μM
(§3) Final enzyme concentration: 4 nM (β-Gal), 8.5 μg/mL (DPP-IV), 10 U/mL (GGT)
(§4) Reaction temperature: 37° C.
(§5) (2) Enzymatic Reaction Using DPP-IV and GGT
(§6) Instrument: 1260 Infinity (manufactured by Agilent Technologies, Inc.)
(§7) Column: Poroshell 120, 4.6×100 mm (manufactured by Agilent Technologies, Inc.)
(§8) Mobile phase A: water (0.01M ammonium formate)
(§9) Mobile phase B: 80% acetonitrile/water (0.01M ammonium formate)
Next, enzymatic reactions were carried out under the following conditions using the benzyl-position leaving group-converted derivatives synthesized and purified enzyme.
Final enzyme concentration: 10 U/mL (GGT)
Enzymatic reaction using GGT

Assay [1] concerns SHIN3 cells (high GGT expression) and H226 cells (low GGT expression). The experiment in a line: CCK-8 assay, cells with high and low GGT expression. The class given is cell-based, human. The procedure: (§10) Next, it was verified whether compounds 1-3 can change the cell viability by functioning as a prodrug when administered to cells with high and low enzyme expression. The efficacy studies were carried out by using a general colorimetric method called CCK-8 assay (method for quantifying the dehydrogenase activity inside living cells through reduction of colorless WST-8 to orange formazan) to quantify the number of living cells. The CCK-8 assay evaluation method is described below.
(§11) The B-galactosidase-activated prodrug was evaluated using HEK/lac Z cells (cells derived from human kidney cells, high β-Gal expression) and HEK293 cells (cells derived from human kidney cells, low β-Gal expression). The DPP-IV-activated prodrug was evaluated using H226 cells (human lung squamous cell carcinoma cells, high DPP-IV expression) and H460 cells (human non-small cell epithelial lung cancer cells, low DPP-IV expression). The GGT-activated prodrug was evaluated using SHIN3 cells (human ovarian cancer cells, high GGT expression) and H226 cells (human lung squamous cell carcinoma cells, low GGT expression).
Each type of cell was seeded in 96-well plates (cell density: 1.0×10^4/well) and incubated overnight. The medium was exchanged for fresh medium, and the synthesized derivatives were added (final concentration 1-50 μM, 0.5% DMSO, n=3). After culturing the cells for another 24 hours, a Cell Counting Kit-8 (10 μL/well, manufactured by […]) was added. After 2.5 hours, the 450 nm absorbance was measured by a plate reader, and the number of viable cells was quantified.
Next, benzyl-position leaving group-converted derivatives were subjected to the CCK-8 assay described above.
(In general: Formazan colour is commonly taken as a measure of viable cells.)

The target in another assay is β-Gal (Escherichia coli, UniProt P00722). The experiment in a line: Enzymatic reaction with purified β-galactosidase, LC-MS analysis of products. The class given is biochemical. The conditions noted are these: 100 μM compound, 4 nM β-Gal, 37° C.; reaction product 2-hydroxybenzyl alcohol; FIG. 4. The procedure:
as §1, §2, §3, §4
(1) Enzymatic Reaction Using β-Galactosidase
Instrument: ACQUITY UPLC (manufactured by Waters Corporation)
as §7, §8, §9

For a further assay, the system named is HEK293 cells. Nature of the assay: CCK-8 assay, cells with low β-Gal expression. The class given is cell-based, human. The conditions noted are these: 50 μM, after 24 hours, FIG. 5. The procedure: as §10, §11
(§12) Each type of cell was seeded in 96-well plates (cell density: 1.0×10^4/well) and incubated overnight. […] After 2.5 hours, the 450 nm absorbance was measured by a plate reader, and the number of viable cells was quantified.

The subject of another assay is HEK/lac Z cells. Nature of the assay: CCK-8 assay, cells with high β-Gal expression. The class given is cell-based, human. Particulars: FIG. 5. The procedure:
as §10, §11, §12

Another assay addresses DPP-IV (Homo sapiens, UniProt P27487). Nature of the assay: Enzymatic reaction with purified DPP-IV, LC-MS analysis of products. The class given is biochemical. Particulars: 100 μM compound, 8.5 μg/mL DPP-IV, 37° C.; reaction product 2-aminobenzyl alcohol; FIG. 4. As to the method:
as §1, §2, §3, §4, §5, §6, §7, §8, §9

In assay [2] the test system is H226 cells (high DPP-IV expression) and H460 cells (low DPP-IV expression). The experiment in a line: CCK-8 assay, cells with high and low DPP-IV expression. The class given is cell-based, human. The conditions noted are these: H226 (high DPP-IV) vs H460 (low DPP-IV), 1-50 μM, 24 hours; FIG. 6. As to the method: as §10, §11, §12
Assay [3] deals with SHIN3 cells and H226 cells. The experiment in a line: Cell death observation by fluorescence imaging over time with EthD-1 (protocol 1). The class given is cell-based, human. The conditions noted are these: SHIN3 vs H226 cultured separately, imaging over 24 hr; FIG. 8. An excerpt:
Since changing the types of cells and standardizing the medium to RPMI-1640 made coculture possible, the aim then became to observe cell death under coculture conditions and to construct a quantitative method. It was decided to conduct these studies using compound 3 for GGT (gGlu-FMA) based on the results obtained thus far, and the possibility of visually observing cell death by observation of fluorescence using one type of cell was first explored as an initial study (FIG. 8).
Scan mode: xyzt, x=512, y=512, z=4, t=24. Scale bar: 50 μm.

For assay [4], the system named is SHIN3 cells and H226 cells. Nature of the assay: Efficacy evaluation by flow cytometry (protocol 3). The class given is cell-based, human. Particulars: 25 μM, 24-hr incubation; compared with +100 μM GGsTop and 0.25% DMSO control; FIG. 10. The procedure: On the other hand, since it is impossible to quantitatively discuss the extent to which the survival rates of high-expression/low-expression cells have changed, the present inventors studied whether this could be evaluated using flow cytometry (FIG. 10).
(Top) 25 μM model compound, (middle) 25 μM model compound+100 μM GGsTop, (bottom) 0.25% DMSO control. Analysis was carried out after 24-hr incubation.
Background: A flow cytometer gives signals particle by particle.

The test system of assay [5] is cocultured SHIN3 cells and H226 cells. Nature of the assay: Cell death observation under coculture conditions, time-lapse fluorescence imaging with EthD-1 (protocol 2). Particulars: coculture of high and low GGT expression cells, 24 hr time-lapse imaging; FIG. 9. The class given is cell-based, human.
The next assay deals with SHIN3 cells. The experiment in a line: Administration study in peritoneal dissemination model mice. The conditions noted are these: 5 mg/kg intraperitoneally each day from day 7, imaged day 21 with gGlu-HMRG, vs PBS; FIG. 17. The class given is in vivo. The procedure: Peritoneal dissemination model mice were created by intraperitoneal administration of SHIN3 cells (cancer cell line derived from ovarian cancer, high GGT activity) suspended in PBS. From day seven after cell dissemination, 5 mg/kg of gGlu-FMA or PBS (control) was administered intraperitoneally each day. On day 21 after cell dissemination, gGlu-HMRG was administered intraperitoneally, and the mice were sacrificed ten minutes later. After laparotomy, fluorescence images were acquired by a Maestro in vivo imaging device (FIG. 16).

Sequence of DPP-IV (P27487 whole entry, species assumed): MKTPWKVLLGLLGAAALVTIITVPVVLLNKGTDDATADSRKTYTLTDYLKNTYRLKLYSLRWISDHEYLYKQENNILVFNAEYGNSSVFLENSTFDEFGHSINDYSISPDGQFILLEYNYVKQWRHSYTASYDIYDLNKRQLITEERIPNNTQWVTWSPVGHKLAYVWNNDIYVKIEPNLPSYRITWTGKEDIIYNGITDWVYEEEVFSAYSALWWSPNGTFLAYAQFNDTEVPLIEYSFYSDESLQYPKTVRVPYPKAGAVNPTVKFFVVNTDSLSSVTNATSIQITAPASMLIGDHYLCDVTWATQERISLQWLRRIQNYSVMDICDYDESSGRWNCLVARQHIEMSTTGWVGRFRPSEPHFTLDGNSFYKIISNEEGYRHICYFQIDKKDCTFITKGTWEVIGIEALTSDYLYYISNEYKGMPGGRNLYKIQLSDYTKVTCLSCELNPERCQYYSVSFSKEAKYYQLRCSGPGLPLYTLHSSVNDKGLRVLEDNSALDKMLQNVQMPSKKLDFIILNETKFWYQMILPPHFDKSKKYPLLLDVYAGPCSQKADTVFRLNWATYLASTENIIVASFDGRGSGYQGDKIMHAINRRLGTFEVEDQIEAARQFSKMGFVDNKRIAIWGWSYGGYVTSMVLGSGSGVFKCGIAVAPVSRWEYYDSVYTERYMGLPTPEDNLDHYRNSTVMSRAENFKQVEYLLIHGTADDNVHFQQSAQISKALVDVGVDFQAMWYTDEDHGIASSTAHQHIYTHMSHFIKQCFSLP
Sequence of β-Gal (P00722 2-1024): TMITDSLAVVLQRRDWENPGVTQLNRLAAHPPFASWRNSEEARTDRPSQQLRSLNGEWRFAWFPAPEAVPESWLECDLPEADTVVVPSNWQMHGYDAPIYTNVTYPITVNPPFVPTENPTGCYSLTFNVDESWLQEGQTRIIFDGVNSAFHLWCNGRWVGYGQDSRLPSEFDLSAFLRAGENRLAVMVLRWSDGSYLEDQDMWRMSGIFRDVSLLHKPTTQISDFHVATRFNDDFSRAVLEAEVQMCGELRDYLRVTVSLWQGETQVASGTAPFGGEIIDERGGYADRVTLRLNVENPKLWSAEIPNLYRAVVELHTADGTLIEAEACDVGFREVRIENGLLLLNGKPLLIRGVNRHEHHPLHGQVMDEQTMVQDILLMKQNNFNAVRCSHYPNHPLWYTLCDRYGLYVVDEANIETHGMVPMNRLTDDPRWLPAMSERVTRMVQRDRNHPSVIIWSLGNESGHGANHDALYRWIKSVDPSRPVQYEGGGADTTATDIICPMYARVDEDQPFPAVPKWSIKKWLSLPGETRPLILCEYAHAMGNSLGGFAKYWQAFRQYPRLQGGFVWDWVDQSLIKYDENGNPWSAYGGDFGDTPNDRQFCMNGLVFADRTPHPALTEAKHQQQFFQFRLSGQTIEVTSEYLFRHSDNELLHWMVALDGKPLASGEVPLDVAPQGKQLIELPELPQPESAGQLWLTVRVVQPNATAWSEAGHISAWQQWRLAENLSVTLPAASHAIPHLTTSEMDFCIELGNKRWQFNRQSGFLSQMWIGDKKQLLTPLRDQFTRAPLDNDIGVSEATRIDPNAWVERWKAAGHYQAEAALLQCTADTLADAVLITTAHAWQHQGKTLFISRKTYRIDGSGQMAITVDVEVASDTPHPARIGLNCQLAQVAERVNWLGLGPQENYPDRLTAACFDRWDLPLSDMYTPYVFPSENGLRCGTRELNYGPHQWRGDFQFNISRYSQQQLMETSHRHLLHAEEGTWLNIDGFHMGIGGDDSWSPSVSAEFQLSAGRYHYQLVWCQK

Turning to `COP(=O)(CCC(N)C(=O)O)Oc1cccc(CC(=O)O)c1` (stereo not shown) [GGsTop, reference compound], the “effect of inhibitor on the GGT enzymatic reaction of the model compound” value in the assay on GGT (inhibitor added at 100 μM) is listed as “inhibited”. Further, in assay [1] (CCK-8, FIG. 7), the “effect of GGT inhibitor on survival rate of cells treated with the GGT prodrug” value is given as “completely restored the survival rate”.
Consider `OCC1O[C@@H](Oc2ccccc2CF)C(O)C(O)[C@H]1O` (stereo partly shown) [compound 1], for which the “cleavage by β-Gal” value at β-Gal was “cleaved”. Also, the survival rate result in the assay with HEK293 cells is listed as “did not drop at all”; in the assay on HEK/lac Z cells (HEK/lac Z cells, 50 μM, after 24 hours) it was “did not drop at all”. Besides, the “difference in survival rate between high-expression and low-expression cells” value with HEK/lac Z cells (HEK/lac Z vs HEK293, up to 50 μM, 24 hours) is recorded as “no significant difference”.
Regarding `NCC(=O)N1CCC[C@H]1C(=O)Nc1ccccc1CF` [compound 2], at DPP-IV, the “cleavage by DPP-IV” value is on record as “cleaved”. The “changes in cell viability between cells with high and low enzyme expression” value in assay [2] is “changes in the cell viability were observed”.
Take `N[C@@H](CCC(=O)Nc1ccccc1CF)C(=O)O` [compound 3]: the “cell death (EthD-1 dead cell staining)” value in assay [3] is on record as “more cell death occurred in SHIN3 cells”. Also, the “cleavage by GGT” value in the assay on GGT (100 μM compound, 10 U/mL GGT, 37° C., reaction product 2-aminobenzyl alcohol, FIG. 4) is “cleaved”. Moreover, the “cell death by flow cytometry (EthD-1 dead staining)” value in assay [4] is listed as “selective cell death of SHIN3 cells”. For the same compound, the “selective cell damage in coculture (EthD-1 dead cell staining)” value in [5] is given as “selectively damages high-expression cells”. Further, the “changes in cell viability between cells with high and low enzyme expression” value in assay [1] (SHIN3 (high GGT) vs H226 (low GGT), 1-50 μM, 24 hours, FIG. 7) was “changes in the cell viability were observed”. In assay [1] (SHIN3 vs H226, CCK-8, FIG. 7), the cell type selectivity result is listed as “high cell type selectivity”. In assay [1] (concentration of 25 μM, FIG. 13), the “antitumor activity (CCK-8 assay)” value was “showed an effect”. Moreover, the “tumors on the mesentery (macro and fluorescence images)” value with SHIN3 cells is “Tumors appear to be decreased overall”.
